Consider 18 molecules from patent US20230148599A1, “FUNGICIDAL MIXTURES CONTAINING PYRAZOLE DERIVATIVES” (FMC Corporation, priority 2020, published 2023).

Common to all, as to type: in vivo
Settings in all cases: 50 ppm, 100 = 100% disease control, 0 = no control

Experiment [1] has as its system Septoria tritici. Description: Test A: wheat leaf blotch, preventive spray on wheat seedlings. The procedure, abridged:
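Preventive test: one day after spraying seedlings to run-off (concentrations in ppm; acetone/water, 250 ppm PEG400), Septoria tritici spores applied. Scored after 48 h humid incubation at 24 °C plus 17 days at 20 °C, as percent disease control versus untreated controls (100 = full control).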

For experiment [2], the system named is Puccinia recondita f. sp. tritici. As to the kind of experiment: Test B: wheat leaf rust, preventive spray on wheat seedlings. The procedure, abridged:
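Preventive test: compound in acetone/water 50/50 with 250 ppm PEG400 was sprayed onto wheat seedlings one day before inoculation with leaf rust spores. After 24 h in saturated air and 7 days in a growth chamber, both at 20 °C, disease control was scored from 0 to 100 against controls.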

Experiment [3] has as its system Blumeria graminis f. sp. tritici. As to the kind of experiment: Test C: wheat powdery mildew, preventive spray on wheat seedlings. The procedure, abridged:
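Preventive test: inoculation with spore dust came one day after spraying seedlings to run-off with ppm suspensions in acetone/water (50/50) plus 250 ppm PEG400 surfactant. Visual ratings after 8 days' incubation at 20° C give percent disease control relative to controls.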

Experiment [4] deals with Phakopsora pachyrhizi. As to the kind of experiment: Test D: Asian soybean rust, preventive spray on soybean seedlings. The procedure, abridged: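 Compounds in acetone/water (50/50) with 250 ppm PEG400, dosed in ppm, sprayed to run-off on soybean seedlings; inoculated with P. pachyrhizi spores next day. Held 24 h at 22 °C in saturated air, then 8 days at 22 °C; visual rating of disease control, 0–100, relative to untreated controls.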

Experiment [5] concerns Botrytis cinerea. As to the kind of experiment: Test E: tomato Botrytis, preventive spray on tomato seedlings. The procedure, abridged:
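Preventive test: seedlings sprayed to run-off with compound in acetone/water (50/50) plus 250 ppm PEG400, inoculated one day later with B. cinerea spores. Held 48 h saturated at 20° C, then 3 days at 24° C; disease control scored visually from 0 to 100 versus controls.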

For experiment [6], the system named is Alternaria solani. Description: Test F: tomato early blight, preventive spray on tomato seedlings. The procedure, abridged: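 Preventive test: one day after the compound spray, seedlings were inoculated with A. solani, incubated saturated at 27 °C for 48 h, then kept at 20 °C for 3 days. Test suspensions contained acetone/water 50/50 with 250 ppm PEG400 surfactant. Visual ratings run from 0 (no control) to 100 (full control).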

On to `Cc1nn(C)c(Nc2c(Br)cccc2[N+](=O)[O-])c1-c1ccc(F)cc1Cl` [compound 110], for which the “Test A disease control rating” value in experiment [1] stood at 100%. Also, the “Test B disease control rating” value in experiment [2] is reported as 98%. The “Test C disease control rating” value in experiment [3] is on record as 56%. In experiment [4], the “Test D disease control rating” value turned out to be 73%. Moreover, the “Test E disease control rating” value in experiment [5] is on record as 99%. In addition, the “Test F disease control rating” value in experiment [6] is on record as 0%.
As for `Cc1nn(C)c(Nc2c(F)cccc2[N+](=O)[O-])c1-c1c(F)cc(C#N)cc1F` [compound 114], the “Test A disease control rating” value in experiment [1] is on record as 100%. Also, the “Test B disease control rating” value in experiment [2] is listed as 98%. Besides, in experiment [3], the “Test C disease control rating” value amounted to 99%. In experiment [4], the “Test D disease control rating” value was 73%. In experiment [5], the “Test E disease control rating” value is 100%. In addition, the “Test F disease control rating” value in experiment [6] was 99%.
In the case of `Cc1nn(C)c(Nc2c(F)cc(Cl)cc2[N+](=O)[O-])c1-c1ccc(C#N)cc1Cl` [compound 115], the “Test A disease control rating” value in experiment [1] is listed as 100%. The “Test B disease control rating” value in experiment [2] was 100%. Besides, the “Test C disease control rating” value in experiment [3] was 94%. Besides, the “Test D disease control rating” value in experiment [4] is recorded as 77%. Besides, the “Test E disease control rating” value in experiment [5] is 99%. Moreover, the “Test F disease control rating” value in experiment [6] amounted to 99%.
`Cc1nn(C)c(Nc2c(Cl)cc(Cl)cc2[N+](=O)[O-])c1-c1ccc(C#N)cc1Cl` [compound 116]: in experiment [1], the “Test A disease control rating” value is listed as 99%. Also, the “Test B disease control rating” value in experiment [2] is reported as 99%. The “Test C disease control rating” value in experiment [3] is given as 56%. Further, the “Test D disease control rating” value in experiment [4] was 0%. The “Test E disease control rating” value in experiment [5] is given as 63%. For the same molecule, the “Test F disease control rating” value in experiment [6] was 82%.
Turning to `Cc1cccc([N+](=O)[O-])c1Nc1c(-c2ccc(F)cc2Cl)c(C)nn1C` [compound 117], in experiment [1], the “Test A disease control rating” value was determined as 99%. Also, the “Test B disease control rating” value in experiment [2] is 100%. The “Test C disease control rating” value in experiment [3] is 95%. For the same molecule, the “Test D disease control rating” value in experiment [4] is recorded as 0%. Besides, the “Test E disease control rating” value in experiment [5] is on record as 99%. Also, the “Test F disease control rating” value in experiment [6] is 76%.
For `COc1ccc(Nc2c(-c3ccc(F)cc3Cl)c(C)nn2C)c([N+](=O)[O-])c1` [compound 119], the “Test A disease control rating” value in experiment [1] was 100%. The “Test B disease control rating” value in experiment [2] is 100%. The “Test C disease control rating” value in experiment [3] is 99%. Further, in experiment [4], the “Test D disease control rating” value is 92%. In experiment [5], the “Test E disease control rating” value is on record as 100%. In addition, the “Test F disease control rating” value in experiment [6] came out at 99%.
For the molecule `Cc1nn(C)c(Nc2c(F)cc(F)cc2[N+](=O)[O-])c1-c1ccc(C#N)cc1Cl` [compound 120], the “Test A disease control rating” value in experiment [1] came to 100%. The “Test B disease control rating” value in experiment [2] is recorded as 100%. Also, in experiment [3], the “Test C disease control rating” value is listed as 89%. Besides, the “Test D disease control rating” value in experiment [4] is reported as 44%. Further, the “Test E disease control rating” value in experiment [5] is on record as 100%. Besides, the “Test F disease control rating” value in experiment [6] is on record as 99%.
As for `Cn1nc(C#N)c(-c2ccc(F)cc2Cl)c1Nc1c(F)cccc1[N+](=O)[O-]` [compound 122], the “Test A disease control rating” value in experiment [1] was 100%. The “Test B disease control rating” value in experiment [2] amounted to 100%. Moreover, in experiment [3], the “Test C disease control rating” value is reported as 94%. For the same molecule, the “Test D disease control rating” value in experiment [4] is on record as 0%. The “Test E disease control rating” value in experiment [5] was 100%. Further, in experiment [6], the “Test F disease control rating” value turned out to be 99%.
For the molecule `Cc1nn(C)c(Nc2c(Cl)cccc2[N+](=O)[O-])c1-c1ccc(C#N)cc1Cl` [compound 123], the “Test A disease control rating” value in experiment [1] worked out at 100%. Moreover, the “Test B disease control rating” value in experiment [2] was determined as 97%. For the same molecule, the “Test C disease control rating” value in experiment [3] is on record as 81%. In addition, the “Test D disease control rating” value in experiment [4] is 0%. The “Test E disease control rating” value in experiment [5] worked out at 100%. The “Test F disease control rating” value in experiment [6] is on record as 66%.
Turning to `COc1ccc(Nc2c(-c3ccc(C#N)cc3Cl)c(C)nn2C)c([N+](=O)[O-])c1` [compound 124], the “Test A disease control rating” value in experiment [1] was determined as 100%. The “Test B disease control rating” value in experiment [2] is given as 100%. Moreover, the “Test C disease control rating” value in experiment [3] came out at 99%. Moreover, in experiment [4], the “Test D disease control rating” value is listed as 25%. Also, the “Test E disease control rating” value in experiment [5] is reported as 100%. The “Test F disease control rating” value in experiment [6] is 99%.
Regarding `Cc1nn(C)c(Nc2c(Br)cccc2[N+](=O)[O-])c1-c1ccc(C#N)cc1Cl` [compound 125], the “Test A disease control rating” value in experiment [1] is 100%. The “Test B disease control rating” value in experiment [2] was determined as 96%. In addition, the “Test C disease control rating” value in experiment [3] was 0%. In addition, the “Test D disease control rating” value in experiment [4] came out at 0%. In addition, the “Test E disease control rating” value in experiment [5] is given as 99%. Besides, in experiment [6], the “Test F disease control rating” value is 9%.
Regarding `Cc1nn(C)c(Nc2ccccc2[N+](=O)[O-])c1-c1ccc(F)cc1Cl` [compound 126], the “Test A disease control rating” value in experiment [1] is reported as 98%. Besides, the “Test B disease control rating” value in experiment [2] is 85%. Moreover, in experiment [3], the “Test C disease control rating” value is given as 96%. For the same molecule, the “Test D disease control rating” value in experiment [4] is listed as 0%. Also, the “Test E disease control rating” value in experiment [5] is 100%. The “Test F disease control rating” value in experiment [6] is given as 68%.
In the case of `CCc1nn(C)c(Nc2c(Cl)cc(Br)cc2[N+](=O)[O-])c1-c1ccc(F)cc1Cl` [compound 128], the “Test A disease control rating” value in experiment [1] is reported as 100%. Further, in experiment [2], the “Test B disease control rating” value is listed as 98%. The “Test C disease control rating” value in experiment [3] is reported as 96%. In addition, in experiment [4], the “Test D disease control rating” value amounted to 31%. For the same molecule, the “Test E disease control rating” value in experiment [5] was 99%. Besides, the “Test F disease control rating” value in experiment [6] amounted to 33%.
For the molecule `Cc1nn(C)c(Nc2cc(Cl)ccc2[N+](=O)[O-])c1-c1ccc(F)cc1Cl` [compound 130], the “Test A disease control rating” value in experiment [1] was determined as 85%. In addition, the “Test B disease control rating” value in experiment [2] is on record as 86%. The “Test C disease control rating” value in experiment [3] came out at 20%. For the same molecule, the “Test D disease control rating” value in experiment [4] was 0%. In addition, in experiment [5], the “Test E disease control rating” value is 85%. For the same molecule, the “Test F disease control rating” value in experiment [6] came out at 0%.
Consider `Cc1nn(C)c(Nc2c(F)cc(Cl)cc2[N+](=O)[O-])c1-c1ccc(F)cc1Br` [compound 131], for which, in experiment [1], the “Test A disease control rating” value worked out at 100%. In addition, the “Test B disease control rating” value in experiment [2] is listed as 100%. For the same molecule, the “Test C disease control rating” value in experiment [3] amounted to 99%. In addition, in experiment [4], the “Test D disease control rating” value was 80%. In addition, the “Test E disease control rating” value in experiment [5] turned out to be 99%. Moreover, the “Test F disease control rating” value in experiment [6] is 100%.
On to `Cc1nn(C)c(Nc2c(F)cc(Br)cc2[N+](=O)[O-])c1-c1ccc(Cl)cc1Cl` [compound 132], for which the “Test A disease control rating” value in experiment [1] is given as 100%. Further, in experiment [2], the “Test B disease control rating” value was determined as 98%. For the same molecule, the “Test C disease control rating” value in experiment [3] turned out to be 47%. For the same molecule, the “Test D disease control rating” value in experiment [4] is on record as 0%. For the same molecule, the “Test E disease control rating” value in experiment [5] was 99%. For the same molecule, the “Test F disease control rating” value in experiment [6] came out at 96%.
As for `Cc1nn(C)c(Nc2c(Cl)cccc2[N+](=O)[O-])c1-c1ccc(Cl)cc1Cl` [compound 133], the “Test A disease control rating” value in experiment [1] is reported as 100%. Further, the “Test B disease control rating” value in experiment [2] is listed as 86%. The “Test C disease control rating” value in experiment [3] is given as 0%. In addition, the “Test D disease control rating” value in experiment [4] is 0%. Also, the “Test E disease control rating” value in experiment [5] is reported as 97%. In addition, the “Test F disease control rating” value in experiment [6] is given as 0%.
As to `Cc1nn(C)c(Nc2ccccc2[N+](=O)[O-])c1-c1ccc(C#N)cc1F` [compound 134], the “Test A disease control rating” value in experiment [1] came out at 100%. Besides, the “Test B disease control rating” value in experiment [2] was 23%. Further, the “Test C disease control rating” value in experiment [3] worked out at 71%. Also, in experiment [4], the “Test D disease control rating” value was 0%. In experiment [5], the “Test E disease control rating” value is 70%. Also, the “Test F disease control rating” value in experiment [6] is reported as 0%.
